Like-named read-outs stand apart in the source and are kept apart here.
Experiments:
[1] = system: H3K4me2 in the P19 cell line; settings: cited from earlier work
[2] = system: HCT116 human colon tumor xenograft; experiment: HCT116 human colon tumor xenograft model; format: in vivo, athymic nu/nu Fox Chase mice; settings: 2 mg/kg, 5 times a week over 38 days
Method: Previously, various polyaminobiguanidides were evaluated in an HCT116 human colon tumor xenograft model in athymic nu/nu Fox Chase mice. Mice were treated with polyaminobiguanidides, 5-azacytidine (5-AC) or a combination of the two agents. Drugs were administered 5 times a week over a period of 38 days.

recombinant human LSD1 = target: T1, recombinant human LSD1 (Homo sapiens, UniProt O60341); experiment: LSD1 demethylase assay, luminol-dependent chemiluminescence (H2O2 production), H3K4me2 (1-21 aa) peptide substrate; format: biochemical; settings: compound at 10 μM
T1 construct: Full-length human LSD1 cDNA was subcloned into the pET15b bacterial expression vector; 6xHis (N); made in house; host or cells: Escherichia coli BL21(DE3)
Method: Full-length human LSD1 cDNA was subcloned into the pET15b bacterial expression vector (Novagen, Madison, Wis.) in frame with an N-terminal 6×HIS-tag and transformed into the BL21(DE3) strain of Escherichia coli. Following selection, expression and purification of recombinant LSD1 protein were performed as previously described. Briefly, expression of LSD1-HIS protein was induced by 1 mM IPTG for 6 h at 25° C. The HIS-tagged protein was purified using Ni-NTA affinity purification resin and column as recommended by the manufacturer (Qiagen, Valencia, Calif.). Bound protein was eluted by imidazole and the eluate was dialyzed in PBS at 4° C. Enzymatic activity of LSD1 was examined using luminol-dependent chemiluminescence to measure the production of H2O2, as previously described. In brief, LSD1 activity was assayed in 50 mM Tris, pH 8.5, 50 mM KCl, 5 mM MgCl, 5 nmol luminol, and 20 μg/ml horseradish peroxidase with the indicated concentrations of H3K4me2 (1-21 aa) peptide as substrate. The integral values were calibrated against standards containing known concentrations of H2O2, and the activities expressed as pmols H2O2/mg protein/min. Reaction mixtures were incubated with or without 5 μg purified LSD1 in 50 mM Tris, pH 8.5, 50 mM KCl, 5 mM MgCl, 0.5% BSA, and 5% glycerol for 3 hr at 37° C. This reaction mixture was analyzed by Western blotting using antibodies (Millipore) that specifically recognize the dimethyl group of H3K4.

H3K4me2 = H3K4me2 level by Western blotting of nuclear fractions; format: cell-based; settings: Homo sapiens
Method: Synthetic H3K4me2 peptides were purchased from Millipore (Billerica, Mass.). Calu-6 cells were maintained in RPMI medium, both supplemented with 10% fetal bovine serum (Gemini Bio-Products, Woodland, Calif.) and grown at 37° C. in 5% CO2 atmosphere.
Cytoplasmic and nuclear fractions were prepared for Western blot analysis using the NE-PER™ Nuclear and Cytoplasmic Extraction Kit (Pierce, Rockford, Ill.). Primary antibodies against H3K4me2 were from Millipore. The pCNA monoclonal antibody was purchased from Oncogene Research Products (Cambridge, Mass.). Dye-conjugated secondary antibodies were used for quantification of Western blot results using the Odyssey Infrared Detection system and software (LI-COR Biosciences, Lincoln, Nebr.).

[3] = target: recombinant LSD1/CoRest complex (Homo sapiens, UniProt O60341); settings: cited from earlier work
[4] = 24 h, read-out: H3K4me2 Fold Increase (24 h)
[5] = 48 h, read-out: H3K4me2 Fold Increase (48 h)

| SMILES | remaining activity at 10 µM (recombinant human LSD1) | other results |
| --- | --- | --- |
| N[C@@H]1C[C@H]1c1ccccc1 (racemic) [tranylcypromine] |  | effect on global levels of H3K4me2 (in words) [1]: increase global levels of H3K4me2 |
| Nc1ncn([C@@H]2O[C@H](CO)[C@@H](O)[C@H]2O)c(=O)n1 [Entry 5-AC, 5-azacytidine] |  | reduction of tumor growth [2]: about 50% |
| O=C(O)CC(=O)Nc1ccccc1F [Entry 33] | 98.2% | fold induction at 5 µM (H3K4me2; [4]): 1.81; fold induction at 10 µM (H3K4me2; [4]): 1.5; fold induction at 5 µM (H3K4me2; [5]): 3.15; fold induction at 10 µM (H3K4me2; [5]): 1.09 |
| O=C(O)CCC(=O)Nc1ccccc1F [Entry 34] | 92.6% |  |
| O=C(O)CCCC(=O)Nc1ccccc1F [Entry 35] | 100% |  |
| O=C(O)CCCCC(=O)Nc1ccccc1F [Entry 36] | 76.4% |  |
| O=C(O)CCCCCC(=O)Nc1ccccc1F [Entry 37] | 95.9% |  |
| COC(=O)[C@@H](N)CCCCNC(=O)CC(=O)Nc1ccccc1F [Entry 38] | 88.4% | fold induction at 5 µM (H3K4me2; [4]): 0.3; fold induction at 10 µM (H3K4me2; [4]): 0.2; fold induction at 5 µM (H3K4me2; [5]): 0.7; fold induction at 10 µM (H3K4me2; [5]): 5.6 |
| COC(=O)[C@H](CCCCNC(=O)NC(c1ccccc1)c1ccccc1)NC(=O)CC(=O)Nc1ccccc1F [Entry 39] | 100% |  |
| COC(=O)[C@H](CCCCNC(=O)NCC(c1ccccc1)c1ccccc1)NC(=O)CC(=O)Nc1ccccc1F [Entry 40] | 100% |  |
| COC(=O)[C@H](CCCCNC(=O)NCCC(c1ccccc1)c1ccccc1)NC(=O)CC(=O)Nc1ccccc1F [Entry 41] | 100% |  |
| COC(=O)[C@H](CCCCNC(=S)NC(c1ccccc1)c1ccccc1)NC(=O)CC(=O)Nc1ccccc1F [Entry 42] | 100% | fold induction at 5 µM (H3K4me2; [4]): 49.1; fold induction at 10 µM (H3K4me2; [4]): 60.6; fold induction at 5 µM (H3K4me2; [5]): 0.5; fold induction at 10 µM (H3K4me2; [5]): 3 |
| COC(=O)[C@H](CCCCNC(=S)NCC(c1ccccc1)c1ccccc1)NC(=O)CC(=O)Nc1ccccc1F [Entry 43] | 100% |  |
| COC(=O)[C@H](CCCCNC(=S)NCCC(c1ccccc1)c1ccccc1)NC(=O)CC(=O)Nc1ccccc1F [Entry 44] | 100% |  |
| C#CCN(CC#C)CCCC[C@H](NC(=O)CC(=O)Nc1ccccc1F)C(=O)OC [Entry 45] | 84.1% |  |
| C#CCNCCCC[C@H](NC(=O)CC(=O)Nc1ccccc1F)C(=O)OC [Entry 46] | 90.4% |  |
| C#CCN(CC#C)CCCC[C@H](NC(=O)CCC(=O)Nc1ccccc1F)C(=O)OC [Entry 47] | 92.4% |  |
| C#CCN(CC#C)CCCC[C@H](NC(=O)CCCC(=O)Nc1ccccc1F)C(=O)OC [Entry 48] | 100% |  |
| C#CCN(CC#C)CCCC[C@H](NC(=O)CCCCC(=O)Nc1ccccc1F)C(=O)OC [Entry 49] | 100% |  |
| C#CCN(CC#C)CCCC[C@H](NC(=O)CCCCCC(=O)Nc1ccccc1F)C(=O)OC [Entry 50] | 100% |  |
| NNCCc1ccccc1 [phenelzine] |  | effect on global levels of H3K4me2 (in words) [1]: increase global levels of H3K4me2; effect on nucleosomal demethylation (in words) [3]: inactivate nucleosomal demethylation |

From patent US9527805B2, “Small molecules as epigenetic modulators of lysine-specific demethylase 1 and methods of treating disorders” (priority 2010, dated 2016)
